Measured values from patent US20090162425A1, “METHODS AND COMPOSITIONS FOR INHIBITING UNDESIRABLE CELLULAR PROLIFERATION BY TARGETED LIPOSOME DELIVERY OF ACTIVE AGENTS” (University of Tennessee Research Foundation, priority 2007, published 2009).

Key:
avidin = avidin (Gallus gallus, UniProt P02701); settings: avidin-biotin interaction; cited from earlier work
[1] = in vivo; cited from earlier work
[2] = cited from earlier work
[3] = tested on: C6 GFP flank glioma tumors; settings: 2 mg/Kg paclitaxel administered systemically, flank model
Procedure: Tumor growth was measured on every 3rd day with a vernier caliper, and tumor volume was measured using the formula
Injections were made using the retro orbital route of administration. For monitoring changes in tumor volume, tumor growth was measured every 3rd day with a vernier caliper, and tumor volume was measured as described in previous section.
The tumor growth delay was defined as the time required for a treated tumor to reach a specific volume (130 mm^3) minus the time for the untreated tumor to reach that same volume.

[4] = tested on: C6 GFP intracranial glioma tumors; settings: 2 mg/Kg paclitaxel administered systemically, intracranial model
Procedure: The animals were monitored visually on a daily basis and weights were measured on every 3rd day until they lost 10% of their body weight.
After 5 days of tumor cell inoculation, animals were assigned randomly to 3 groups (n=3-4 per group). […] The animals were then sacrificed on the 9th day of treatment and the brains were isolated.
Tumor areas were measured METAMORPH® software after taking optical images with a CCD camera with GFP filter.

avidin, sequence (P02701 25-152): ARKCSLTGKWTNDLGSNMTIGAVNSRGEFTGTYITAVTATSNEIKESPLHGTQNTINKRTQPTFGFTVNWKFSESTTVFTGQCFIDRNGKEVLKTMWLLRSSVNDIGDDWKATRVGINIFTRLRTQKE

In the case of `O=C(O)CCCC[C@@H]1SC[C@@H]2NC(=O)N[C@@H]21` [biotin], the dissociation half-life (avidin) is listed as “about 89 days”.
In the case of `CC(=O)O[C@H]1C(=O)[C@@]2(C)[C@H]([C@H](OC(=O)c3ccccc3)[C@]3(O)C[C@H](OC(=O)[C@H](O)[C@@H](NC(=O)c4ccccc4)c4ccccc4)C(C)=C1C3(C)C)[C@]1(OC(C)=O)CO[C@@H]1C[C@@H]2O` [paclitaxel], the “drug bound to plasma proteins” value [1] is given as “More than 90%”, the “terminal half-life (mean)” value [1] is given as 5 h and the “terminal half-life (range)” value [1] is given as 1.3 to 8.6 h. For the same compound, the “log P” value [2] was 3.96, the “gross deleterious effects (clinical monitoring and daily weights)” value [3] was “no gross deleterious effects” and the “gross deleterious effects (clinical monitoring and daily weights)” value [4] was “no gross deleterious effects”.
